Read-outs that look alike come from different tables or passages of the source.
Key:
[1] = target: T1, full-length beta-Catenin (Uniprot ID P35222) (Homo sapiens, UniProt P35222); experiment: Fluorescence polarization IC50 (beta-catenin / 5FAM-TCF4 10-53 competition); assay type: binding
T1 construct: 10 nM full-length beta-Catenin (Uniprot ID P35222)
T1 sequence (P35222 1-781): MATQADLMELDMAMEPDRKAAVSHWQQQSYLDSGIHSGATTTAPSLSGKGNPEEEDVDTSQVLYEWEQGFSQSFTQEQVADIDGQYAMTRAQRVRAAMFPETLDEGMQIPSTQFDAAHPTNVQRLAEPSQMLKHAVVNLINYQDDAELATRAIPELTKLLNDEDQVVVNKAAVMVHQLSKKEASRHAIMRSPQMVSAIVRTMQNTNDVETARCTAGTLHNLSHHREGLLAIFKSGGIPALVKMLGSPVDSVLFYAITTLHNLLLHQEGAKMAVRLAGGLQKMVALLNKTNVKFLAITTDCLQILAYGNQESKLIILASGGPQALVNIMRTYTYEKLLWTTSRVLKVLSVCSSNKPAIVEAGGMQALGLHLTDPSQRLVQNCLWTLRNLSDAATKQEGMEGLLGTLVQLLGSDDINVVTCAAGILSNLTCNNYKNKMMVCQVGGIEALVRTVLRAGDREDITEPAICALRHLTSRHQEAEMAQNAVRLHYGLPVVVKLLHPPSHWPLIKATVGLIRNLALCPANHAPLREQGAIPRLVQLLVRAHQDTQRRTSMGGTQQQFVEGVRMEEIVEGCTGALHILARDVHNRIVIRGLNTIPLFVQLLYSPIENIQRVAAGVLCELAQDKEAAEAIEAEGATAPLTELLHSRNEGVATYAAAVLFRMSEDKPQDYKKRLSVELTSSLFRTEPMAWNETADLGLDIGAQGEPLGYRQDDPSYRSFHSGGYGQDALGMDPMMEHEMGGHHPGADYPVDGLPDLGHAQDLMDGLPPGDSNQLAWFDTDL

[2] = CHI Log D procedure; assay type: physicochemical; settings: for CHI Log D: pH 7.4; for chromatographic logD: pH 7.4, CHI Log D
[3] = Table E2-1, read-out: beta-Catenin FP IC50
[4] = fluorescence polarization, beta-catenin, read-out: FP EC50
[5] = fluorescence polarization, read-out: beta-Catenin FP IC50

Structure (SMILES)	IC50 ([1]; read-out: beta-Catenin FP IC50)	CHI Log D [2]	IC50 [1, 3]	IC50 [1, 4]	IC50 [1, 5]	IC50 ([1]; read-out: FP EC50)	chromatographic logD [2]
CC(=O)N1CCC[C@]12CC=CCCCC1(CCCC=CCCCOC(=O)N3CC[C@@](C(=O)N[C@@H](Cc4ccsc4)C(=O)N[C@@H](Cc4csc5ccccc45)C(=O)N[C@@H](CCC(N)=O)C(N)=O)(C3)NC(=O)[C@H](CCC(N)=O)NC(=O)[C@H](Cc3ccccc3)NC(=O)[C@H](C)NC(=O)[C@H](C)NC(=O)[C@H](CC(=O)O)NC(=O)[C@H](CC(=O)O)NC1=O)NC(=O)[C@H](CC(C)(C)C)NC(=O)[C@H](CC(=O)O)NC2=O (stereo partly drawn) [I-763, Ac-PL3-Asp-Npg-B5-Asp-Asp-Ala-Ala-Phe-Gln-PyrS2-3Thi-BztA-Gln-NH2]	5 nM	1.967					
CC(=O)N1CCC[C@]12CC=CCCCC1(CCCC=CCCCCCC[C@@](C)(C(=O)N[C@@H](Cc3ccccc3)C(=O)N[C@@H](Cc3c[nH]c4ccccc34)C(=O)N[C@@H](CCC(N)=O)C(N)=O)NC(=O)[C@H](C(C)C)NC(=O)[C@H](Cc3ccccc3)NC(=O)[C@H](C)NC(=O)[C@H](C)NC(=O)[C@H](CC(N)=O)NC(=O)[C@H](CC(=O)O)NC1=O)NC(=O)[C@H](C)NC(=O)[C@H](CC(=O)O)NC2=O (stereo partly drawn) [I-125, Ac-PL3-Asp-Ala-B5-Asp-Asn-Ala-Ala-Phe-Val-S8-Phe-Trp-Gln-NH2]		2.256	3060 nM	3060 nM			
CC(=O)N1CCC[C@]12CC=CCCCC1(CCCC=CCCCCCC[C@@](C)(C(=O)N[C@@H](Cc3ccccc3)C(=O)N[C@@H](Cc3csc4ccccc34)C(=O)N[C@@H](CCC(N)=O)C(N)=O)NC(=O)[C@H](CCC(N)=O)NC(=O)[C@H](Cc3ccccc3)NC(=O)[C@H](C)NC(=O)[C@H](C)NC(=O)[C@H](CC(=O)O)NC(=O)[C@H](CC(=O)O)NC1=O)NC(=O)[C@H](CC(C)C)NC(=O)[C@H](CC(=O)O)NC2=O (stereo partly drawn) [I-558, Ac-PL3-Asp-Leu-B5-Asp-Asp-Ala-Ala-Phe-Gln-S8-Phe-BztA-Gln-NH2]		2.308			56 nM	56 nM	
CC(=O)N1CCC[C@]12CC=CCCCC1(CCCC=CCCCCCC[C@@](C)(C(=O)N[C@@H](Cc3ccccc3)C(=O)N[C@@H](Cc3csc4ccccc34)C(=O)N[C@@H](CCC(N)=O)C(N)=O)NC(=O)[C@H](CCC(N)=O)NC(=O)[C@H](Cc3ccccc3)NC(=O)[C@H](C)NC(=O)[C@H](C)NC(=O)[C@H](CC(=O)O)NC(=O)[C@H](CC(=O)O)NC1=O)NC(=O)[C@H](CC(C)C)NC(=O)[C@H](CC(=O)O)NC2=O (stereo partly drawn) [I-559, Ac-PL3-Asp-Leu-B5-Asp-Asp-Ala-Ala-Phe-Gln-S8-Phe-BztA-Gln-NH2]		2.341			43 nM	43 nM	
COc1ccccc1C[C@H](NC(=O)[C@]1(C)CCCCCCC=CCCCC2(CCCC=CC[C@]3(CCCN3C(C)=O)C(=O)N[C@@H](CC(=O)O)C(=O)N[C@@H](C)C(=O)N2)C(=O)N[C@@H](CC(=O)O)C(=O)N[C@@H](CCC(=O)O)C(=O)N[C@@H](C)C(=O)N[C@@H](C)C(=O)N[C@@H](Cc2ccccc2)C(=O)N[C@@H](CCC(N)=O)C(=O)N1)C(=O)N[C@@H](Cc1csc2ccccc12)C(=O)N[C@@H](CCC(N)=O)C(N)=O (stereo partly drawn) [I-526, Ac-PL3-Asp-Ala-B5-Asp-Glu-Ala-Ala-Phe-Gln-S8-2OMeF-BztA-Gln-NH2]		2.049			56 nM	56 nM	
CC[C@H](C)[C@H](NC(=O)[C@H](CC(=O)O)NC(=O)[C@H](C)NC(C)=O)C(=O)N[C@]1(C)CCN(C)C(=O)OCC=CCCCCC[C@@](C)(C(=O)N[C@@H](Cc2ccccc2)C(=O)N[C@@H](Cc2c[nH]c3ccccc23)C(=O)N[C@@H](Cc2c[nH]cn2)C(N)=O)NC(=O)[C@H](C)NC(=O)[C@H](Cc2ccccc2)NC(=O)[C@H](C)NC(=O)[C@H](C)NC(=O)[C@H](CCC(=O)O)NC(=O)[C@H](CC(=O)O)NC1=O [I-152, Ac-Ala-Asp-Ile-RdN-Asp-Glu-Ala-Ala-Phe-Ala-S7-Phe-Trp-His-NH2]			5000 nM				1.34
CC(=O)N1CCC[C@]12CC=CCCCC1(CCCC=CCCCCCC[C@@](C)(C(=O)N[C@@H](Cc3ccccc3)C(=O)N[C@@H](Cc3csc4ccccc34)C(=O)N[C@H](Cc3c[nH]cn3)C(N)=O)NC(=O)[C@H](CC(N)=O)NC(=O)[C@H](Cc3ccccc3)NC(=O)[C@H](C)NC(=O)[C@H](C)NC(=O)[C@H](CCC(=O)O)NC(=O)[C@H](CC(=O)O)NC1=O)NC(=O)[C@H](CC(C)C)NC(=O)[C@H](CC(=O)O)NC2=O (stereo partly drawn) [I-744, Ac-PL3-Asp-Leu-B5-Asp-Glu-Ala-Ala-Phe-Asn-S8-Phe-BztA-dHis-NH2]		2.557			112 nM	112 nM	
CC(=O)N1CCC[C@]12CC=CCCCC1(CCCC=CCCCCOC(=O)N3CC[C@@](C(=O)N[C@@H](Cc4ccccc4)C(=O)N[C@@H](Cc4csc5ccccc45)C(=O)N[C@@H](CCC(N)=O)C(N)=O)(C3)NC(=O)[C@H](CC(N)=O)NC(=O)[C@H](Cc3ccccc3)NC(=O)[C@H](C)NC(=O)[C@H](C)NC(=O)[C@H](CCC(=O)O)NC(=O)[C@H](CC(=O)O)NC1=O)NC(=O)[C@H](C)NC(=O)[C@H](CC(=O)O)NC2=O (stereo partly drawn) [I-463, Ac-PL3-Asp-Ala-B5-Asp-Glu-Ala-Ala-Phe-Asn-PyrS3-Phe-BztA-Gln-NH2]		1.785			92 nM	92 nM	
CC[C@H](C)[C@@H]1NC(=O)[C@H](CC(=O)O)NC(=O)[C@]2(CC=CCCCC3(CCCC=CCCCCCC[C@@](C)(C(=O)N[C@@H](Cc4ccsc4)C(=O)N[C@@H](Cc4csc5ccccc45)C(=O)N[C@@H](CCC(N)=O)C(N)=O)NC(=O)[C@H](CC(N)=O)NC(=O)[C@H](Cc4ccccc4)NC(=O)[C@H](C)NC(=O)[C@H](C)NC(=O)[C@H](CC(=O)O)NC(=O)[C@H](CC(=O)O)NC3=O)NC1=O)CCCN2C(C)=O (stereo partly drawn) [I-552, Ac-PL3-Asp-Ile-B5-Asp-Asp-Ala-Ala-Phe-Asn-S8-3Thi-BztA-Gln-NH2]		2.334			15.5 nM	15.5 nM	
CC(=O)N1CCC[C@]12CC=CCCCC1(CCCC=CCCCCCC[C@@](C)(C(=O)N[C@@H](Cc3ccccc3)C(=O)N[C@@H](Cc3c[nH]c4ccccc34)C(=O)N[C@@H](CCC(N)=O)C(N)=O)NC(=O)[C@H](C(C)C)NC(=O)[C@H](Cc3ccc(F)cc3)NC(=O)[C@H](C)NC(=O)[C@H](C)NC(=O)[C@H](CC(=O)O)NC(=O)[C@H](CC(=O)O)NC1=O)NC(=O)[C@H](C)NC(=O)[C@H](CC(=O)O)NC2=O (stereo partly drawn) [I-266, Ac-PL3-Asp-Ala-B5-Asp-Asp-Ala-Ala-4FF-Val-S8-Phe-Trp-Gln-NH2]			5000 nM				2.02
CC(=O)N1CCC[C@]12CC=CCCCC1(CCCC=CCCCCCC[C@@](C)(C(=O)N[C@@H](Cc3ccccc3)C(=O)N[C@@H](Cc3csc4ccccc34)C(=O)N[C@@H](Cc3c[nH]cn3)C(N)=O)NC(=O)[C@H](CCC(N)=O)NC(=O)[C@H](Cc3ccccc3)NC(=O)[C@H](C)NC(=O)[C@H](C)NC(=O)[C@H](CC(=O)O)NC(=O)[C@H](CC(=O)O)NC1=O)NC(=O)[C@H](CC(C)C)NC(=O)[C@H](CC(=O)O)NC2=O (stereo partly drawn) [I-560, Ac-PL3-Asp-Leu-B5-Asp-Asp-Ala-Ala-Phe-Gln-S8-Phe-BztA-His-NH2]		2.391			81 nM	81 nM	
CC(=O)N1CCC[C@]12CC=CCCCC1(CCCC=CCCCOC(=O)N3CC[C@@](C(=O)N[C@@H](Cc4ccsc4)C(=O)N[C@@H](Cc4csc5ccccc45)C(=O)N[C@@H](CCC(N)=O)C(N)=O)(C3)NC(=O)[C@H](Cc3ccccc3)NC(=O)[C@H](Cc3ccccc3)NC(=O)[C@H](C)NC(=O)[C@H](C)NC(=O)[C@H](Cc3ccccc3C(=O)O)NC(=O)[C@H](CC(=O)O)NC1=O)NC(=O)[C@H](CC(C)(C)C)NC(=O)[C@H](CC(=O)O)NC2=O (stereo partly drawn) [I-853, Ac-PL3-Asp-Npg-B5-Asp-2COOHF-Ala-Ala-Phe-Phe-PyrS2-3Thi-BztA-Gln-NH2]	8 nM						2.52
CC(=O)N1CCC[C@]12CC=CCCCC1(CCCC=CCCCOC(=O)N3CC[C@@](C(=O)N[C@@H](Cc4ccsc4)C(=O)N[C@@H](Cc4csc5ccccc45)C(=O)N[C@@H](CCC(N)=O)C(N)=O)(C3)NC(=O)[C@H](CO)NC(=O)[C@H](Cc3ccccc3)NC(=O)[C@H](C)NC(=O)[C@H](C)NC(=O)[C@H](Cc3cccc(C(=O)O)c3)NC(=O)[C@H](CC(=O)O)NC1=O)NC(=O)[C@H](CC(C)(C)C)NC(=O)[C@H](CC(=O)O)NC2=O (stereo partly drawn) [I-979, Ac-PL3-Asp-Npg-B5-Asp-3COOHF-Ala-Ala-Phe-Ser-PyrS2-3Thi-BztA-Gln-NH2]	240 nM	1.809		240 nM			
CC[C@H](C)[C@@H]1NC(=O)[C@H](CC(=O)O)NC(=O)[C@]2(CC=CCCCC3(CCCC=CCCCCCC[C@@](C)(C(=O)N[C@@H](Cc4ccccc4OC)C(=O)N[C@@H](Cc4csc5ccccc45)C(=O)N[C@@H](CCC(N)=O)C(N)=O)NC(=O)[C@H](CCC(N)=O)NC(=O)[C@H](Cc4ccccc4)NC(=O)[C@H](C)NC(=O)[C@H](C)NC(=O)[C@H](CCC(=O)O)NC(=O)[C@H](CC(=O)O)NC3=O)NC1=O)CCCN2C(C)=O (stereo partly drawn) [I-527, Ac-PL3-Asp-Ile-B5-Asp-Glu-Ala-Ala-Phe-Gln-S8-2OMeF-BztA-Gln-NH2]		2.376			98 nM	98 nM	

Reference: patent US20240116985A1, “STAPLED PEPTIDES AND METHODS THEREOF” (priority 2020, published 2024)
